Results published in US7192746B2, “α-Isomaltosyltransferase, process for producing the same and use thereof” (Kabushiki Kaisha Hayashibara Seibutsu Kagaku Kenkyujo, priority 2000, dated 2007).
Read-outs that look alike come from different tables or passages of the source.

Columns and labels:
[1] = system: internal content of rat cecum; test: Fermentation test; assay type: in vitro ADME
Experimental: The internal content of rat cecum was collected by anesthetizing a Wister male rat with ether, allowing the rat to die, collecting the internal content under anaerobic conditions, and suspending the resultant with 4-fold volumes of a 0.1 M aqueous solution of sodium bicarbonate. Cyclotetrasaccharide was added in an amount of about 7% by weight to the weight of the internal contents of rat cecum, and the contents of cyclotetrasaccharide, which still remained just after and 12 hours after the addition of the internal contents, were quantified on gas chromatography.

[2] = system: Bifidobacterium adolescentis JCM 1275 strain; test: Assimilation test; assay type: cell-based; settings: PYF medium with 0.5% saccharide, 37° C., four days, anaerobic
[3] = biological target: T1, amylopsin (Homo sapiens, UniProt P04746)
T1 sequence (P04746 16-511): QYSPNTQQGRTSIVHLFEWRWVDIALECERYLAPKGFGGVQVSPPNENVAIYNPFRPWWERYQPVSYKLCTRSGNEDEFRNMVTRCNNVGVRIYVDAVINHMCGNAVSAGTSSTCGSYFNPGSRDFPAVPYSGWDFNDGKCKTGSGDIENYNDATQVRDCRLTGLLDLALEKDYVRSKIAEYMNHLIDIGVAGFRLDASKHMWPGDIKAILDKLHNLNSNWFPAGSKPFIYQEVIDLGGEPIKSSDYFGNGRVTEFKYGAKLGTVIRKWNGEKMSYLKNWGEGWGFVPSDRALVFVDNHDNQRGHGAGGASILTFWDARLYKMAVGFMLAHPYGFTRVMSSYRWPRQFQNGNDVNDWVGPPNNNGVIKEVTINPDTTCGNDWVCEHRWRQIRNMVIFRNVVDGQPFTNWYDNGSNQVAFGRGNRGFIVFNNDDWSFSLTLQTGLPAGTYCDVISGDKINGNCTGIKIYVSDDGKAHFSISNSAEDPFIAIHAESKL

[4] = system: small intestinal mucosal enzyme
[5] = system: α-isomaltosyl-transferring enzyme from Arthrobacter globiformis A19; test: Specificity to transferring acceptor; assay type: biochemical; settings: partially purified enzyme, panose as saccharide donor, 10 units/g substrate, 3.2% (w/v), 30° C., pH 6.0, 24 hours
Outline: (§1)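 Candidate acceptor saccharides mixed with panose donor at equal concentration, 10 units/g substrate enzyme, total saccharide 3.2% (w/v), reacted 24 h at 30 °C, pH 6.0. Transfer product formation scored positive/negative by GLC (mono-/disaccharides) or HPLC (tri- and higher).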

[6] = system: α-isomaltosyl-transferring enzyme from Arthrobacter ramosus S1; test: Specificity to transferring acceptor; assay type: biochemical; settings: panose as saccharide donor, 10 units/g substrate, 3.2% (w/v), 30° C., pH 6.0, 24 hours
Outline: as §1

[7] = system: α-isomaltosyl-transferring enzyme from Bacillus globisporus N75; test: Specificity to transferring acceptor; assay type: biochemical; settings: panose as saccharide donor, 10 units/g substrate, 3.2% (w/v), 30° C., pH 6.0, 24 hours
Outline: as §1

[8] = biological target: T1, amylopsin; test: Digestion test in vitro
[9] = system: small intestinal mucosal enzyme; test: Digestion test in vitro

SMILES | Cyclotetrasaccharide remained without being fermented ([1]; 12 hours) [%] | Content of cyclotetrasaccharide remaining ([1]; 12 hours after the addition) | Content of cyclotetrasaccharide remaining ([1]; just after the addition) | Assimilability [2] | Decomposition percentage by digestive enzyme [3] [%] | Decomposition percentage by digestive enzyme [4] [%] | Digestibility by intestinal mucosal enzyme relative to maltitol [4] | Product of transferring reaction, Enzyme of Stain A19 [5] | Product of transferring reaction, Enzyme of Strain S1 [6] | Product of transferring reaction, Enzyme of Strain N75 [7] | Decomposition percentage by digestive enzyme [8] [%] | Decomposition percentage by digestive enzyme [9] [%]
OCC1OC2OCC3O[C@H](O[C@H]4C(O)C(CO)OC(OCC5O[C@H](O[C@@H](C1O)C2O)C(O)C(O)[C@@H]5O)C4O)C(O)C(O)[C@@H]3O (stereo partly drawn) [Cyclotetrasaccharide, cyclo{→6)-α-D-glucopyranosyl-(1→3)-α-D-glucopyranosyl-(1→6)-α-D-glucopyranosyl-(1→3)-α-D-glucopyranosyl-(1→}] | 93 | 63.0 mg per one gram of the internal contents of rat cecum | 68.0 mg per one gram of the internal contents of rat cecum | − (negative (−) when the post culture had a pH of 6.0 or higher) | 0.0 | 0.74 | ⅕ |  |  |  |  | 
OC[C@@H](O)[C@@H](O[C@H]1O[C@H](CO)[C@@H](O)[C@H](O)[C@H]1O)[C@H](O)[C@@H](O)CO [Maltitol, maltitol] |  |  |  |  |  |  |  | + (a saccharide-transferred product was formed in an amount of over one percent but below 10% to the total sugars) | + (a saccharide-transferred product was formed in an amount of over one percent but below 10% to the total sugars) | + (a saccharide-transferred product was formed in an amount of over one percent but below 10% to the total sugars) | 0.0 | 4.0
